In patent publication US11434246B2, “EP4 antagonists” (Eisai R&D Management Co., Ltd., priority 2015, dated 2022):

Each compound was assayed against EP4 (Homo sapiens, UniProt P35408) (assay: EP4 Antagonism by CRE-PLAP Reporter Assay (SE302 cells, PGE2-stimulated)). Settings: SE302 (HEK293) cells, 3 ng/mL PGE2, overnight; single or multiple assay average values.
EP4, sequence (P35408 whole entry): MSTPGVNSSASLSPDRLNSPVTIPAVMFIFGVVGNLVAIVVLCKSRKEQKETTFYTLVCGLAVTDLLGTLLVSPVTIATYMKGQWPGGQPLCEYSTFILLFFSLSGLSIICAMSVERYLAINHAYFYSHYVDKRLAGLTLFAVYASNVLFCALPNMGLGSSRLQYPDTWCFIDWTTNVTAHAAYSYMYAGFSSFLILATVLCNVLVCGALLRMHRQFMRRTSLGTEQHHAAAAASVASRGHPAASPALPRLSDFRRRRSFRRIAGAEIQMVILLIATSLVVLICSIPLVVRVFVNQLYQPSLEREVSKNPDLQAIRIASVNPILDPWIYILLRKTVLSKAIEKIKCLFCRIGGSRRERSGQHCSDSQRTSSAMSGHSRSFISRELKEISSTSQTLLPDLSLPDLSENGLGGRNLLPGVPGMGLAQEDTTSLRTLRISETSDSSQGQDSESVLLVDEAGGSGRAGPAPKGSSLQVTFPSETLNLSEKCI
Assay type: cell-based
Set-up: HEK293 cells express endogenous EP4; endogenous in cells; host or cells: SE302 (HEK293 clone with CRE-PLAP reporter)
Procedure, shortened: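 HEK293-derived SE302 cells with endogenous EP4 and CRE-driven secreted PLAP, in serum-free medium with 0.1% BSA, stimulated overnight with 3 ng/mL PGE2 plus compound. Supernatant PLAP read by luminescence (pH 11 carbonate buffer, 2 h). IC50 from % of control, normalized to DMSO with and without PGE2.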
`C[C@H](NC(=O)c1c(C(F)(F)F)nn2c1N(Cc1cccc(C(F)(F)F)c1)CC2)c1ccc(C(=O)NS(=O)(=O)c2ccc([N+](=O)[O-])cc2)cc1` [Compound 71, (S)—N-(1-(4-(((4-nitrophenyl)sulfonyl)carbamoyl)phenyl)ethyl)-6-(trifluoromethyl)-1-(3-(trifluoromethyl)benzyl)-2,3-dihydro-1H-imidazo[1,2-b]pyrazole-7-carboxamide] was tested, and the IC50 was 5.87 nM. For `C[C@H](NC(=O)c1c(C(F)(F)F)nn2c1N(Cc1cccc(C(F)(F)F)c1)CC2)c1ccc(C(=O)NS(=O)(=O)c2ccc(N)cc2)cc1` [Compound 72, (S)—N-(1-(4-(((4-aminophenyl)sulfonyl)carbamoyl)phenyl)ethyl)-6-(trifluoromethyl)-1-(3-(trifluoromethyl)benzyl)-2,3-dihydro-1H-imidazo[1,2-b]pyrazole-7-carboxamide], the IC50 was 51.2 nM. With `C[C@H](NC(=O)c1c(C(F)(F)F)nn2c1N(Cc1ccc(N)cc1)CC2)c1ccc(C(=O)O)cc1` [Compound 73, (S)-4-(1-(1-(4-aminobenzyl)-6-(trifluoromethyl)-2,3-dihydro-1H-imidazo[1,2-b]pyrazole-7-carboxamido)ethyl)benzoic Acid] the IC50 was 1.49 nM. `C[C@H](NC(=O)c1c(C(F)(F)F)nn2c1N(Cc1cccc(COCCF)c1)CC2)c1ccc(C(=O)O)cc1` [Compound 74, (S)-4-(1-(1-(3-((2-fluoroethoxy)methyl)benzyl)-6-(trifluoromethyl)-2,3-dihydro-1H-imidazo[1,2-b]pyrazole-7-carboxamido)ethyl)benzoic Acid] gave an IC50 of 28 nM. Work on `C[C@H](NC(=O)c1c(C(F)(F)F)nn2c1N(Cc1cccc(OCCF)c1)CC2)c1ccc(C(=O)O)cc1` [Compound 75, (S)-4-(1-(1-(3-(2-fluoroethoxy)benzyl)-6-(trifluoromethyl)-2,3-dihydro-1H-imidazo[1,2-b]pyrazole-7-carboxamido)ethyl)benzoic Acid] yielded an IC50 of 4.66 nM. `C[C@H](NC(=O)c1c(C(F)(F)F)nn2c1[N+]([O-])(Cc1cccc(I)c1)CC2)c1ccc(C(=O)O)cc1` (stereo partly drawn) [Compound 76, 7-(((S)-1-(4-carboxyphenyl)ethyl)carbamoyl)-1-(3-iodobenzyl)-6-(trifluoromethyl)-2,3-dihydro-1H-imidazo[1,2-b]pyrazole 1-oxide] showed an IC50 of 4.12 nM. For `C[C@H](NC(=O)c1c(C(F)(F)F)nn2c1N(Cc1cc(O)cc(C(F)(F)F)c1)CC2)c1ccc(C(=O)O)cc1` [Compound 77, (S)-4-(1-(1-(3-hydroxy-5-(trifluoromethyl)benzyl)-6-(trifluoromethyl)-2,3-dihydro-1H-imidazo[1,2-b]pyrazole-7-carboxamido)ethyl)benzoic Acid], the IC50 was 0.182 nM. With `C[C@H](NC(=O)c1c(C(F)(F)F)nn2c1N(CC1CCC(CF)CC1)CC2)c1ccc(C(=O)O)cc1` (stereo partly drawn) [Compound 78, (S)-4-(1-(1-((4-(fluoromethyl)cyclohexyl)methyl)-6-(trifluoromethyl)-2,3-dihydro-1H-imidazo[1,2-b]pyrazole-7-carboxamido)ethyl)benzoic acid] the IC50 was 63 nM. With `C=C1CCC(CN2CCn3nc(C(F)(F)F)c(C(=O)N[C@@H](C)c4ccc(C(=O)O)cc4)c32)CC1` [Compound 79, (S)-4-(1-(1-((4-methylenecyclohexyl)methyl)-6-(trifluoromethyl)-2,3-dihydro-1H-imidazo[1,2-b]pyrazole-7-carboxamido)ethyl)benzoic acid] the IC50 was 18.9 nM. `C[C@H](NC(=O)c1c(C(F)(F)F)nn2c1N(Cc1cccc(C(F)(F)F)c1)C[C@H]2COCc1ccccc1)c1ccc(C(=O)O)cc1` [Compound 80, 4-((S)-1-((S)-3-((benzyloxy)methyl)-6-(trifluoromethyl)-1-(3-(trifluoromethyl)benzyl)-2,3-dihydro-1H-imidazo[1,2-b]pyrazole-7-carboxamido)ethyl)benzoic Acid] was tested, and the IC50 was 58.1 nM. In the case of `C[C@H](NC(=O)c1c(C(F)(F)F)nn2c1N(Cc1cccc(C(F)(F)F)c1)C[C@H]2CF)c1ccc(C(=O)O)cc1` [Compound 81, 4-((S)-1-((S)-3-(fluoromethyl)-6-(trifluoromethyl)-1-(3-(trifluoromethyl)benzyl)-2,3-dihydro-1H-imidazo[1,2-b]pyrazole-7-carboxamido)ethyl)benzoic acid], the IC50 is reported as 0.26 nM. For `Cc1cn(Cc2cccc(C(F)(F)F)c2)c2c(C(=O)N[C@@H](C)c3ccc(C(=O)O)cc3)c(C(F)(F)F)nn12` [Compound 82, (S)-4-(1-(3-methyl-6-(trifluoromethyl)-1-(3-(trifluoromethyl)benzyl)-1H-imidazo[1,2-b]pyrazole-7-carboxamido)ethyl)benzoic acid], the IC50 was 1.1 nM. With `C[C@H](NC(=O)c1c(C(F)(F)F)nn2c1N(Cc1cccc(C(F)(F)F)c1)C[C@H]2CO)c1ccc(C(=O)O)cc1` [Compound 83, 4-((S)-1-((S)-3-(hydroxymethyl)-6-(trifluoromethyl)-1-(3-(trifluoromethyl)benzyl)-2,3-dihydro-1H-imidazo[1,2-b]pyrazole-7-carboxamido)ethyl)benzoic Acid] the IC50 was 0.64 nM. `C[C@H](NC(=O)c1c(C(F)(F)F)nn2c1N(Cc1cc(F)cc(C(F)(F)F)c1)CC2)c1ccc(C(=O)O)cc1` [Compound 84, (S)-4-(1-(1-(3-fluoro-5-(trifluoromethyl)benzyl)-6-(trifluoromethyl)-2,3-dihydro-1H-imidazo[1,2-b]pyrazole-7-carboxamido)ethyl)benzoic acid] was tested, and the IC50 was 0.358 nM. Compound `C[C@H](NC(=O)c1c(C(F)(F)F)nn2c1N(Cc1cc(Br)cc(C(F)(F)F)c1)CC2)c1ccc(C(=O)O)cc1` [Compound 85, (S)-4-(1-(1-(3-bromo-5-(trifluoromethyl)benzyl)-6-(trifluoromethyl)-2,3-dihydro-1H-imidazo[1,2-b]pyrazole-7-carboxamido)ethyl)benzoic Acid] has an IC50 of 0.12 nM. Compound `C[C@H](NC(=O)c1c(C(F)(F)F)nn2c1N(Cc1ccc(O)cc1)CC2)c1ccc(C(=O)O)cc1` [Compound 86, (S)-4-(1-(1-(4-hydroxybenzyl)-6-(trifluoromethyl)-2,3-dihydro-1H-imidazo[1,2-b]pyrazole-7-carboxamido)ethyl)benzoic Acid] has an IC50 of 1.48 nM. In the case of `O=C(O)c1ccc([C@H](CO)NC(=O)c2c(C(F)(F)F)nn3c2N(Cc2cccc(C(F)(F)F)c2)CC3)cc1` [Compound 87, (R)-4-(2-hydroxy-1-(6-(trifluoromethyl)-1-(3-(trifluoromethyl)benzyl)-2,3-dihydro-1H-imidazo[1,2-b]pyrazole-7-carboxamido)ethyl)benzoic Acid], the IC50 is reported as 34.7 nM. Work on `C[C@H](NC(=O)c1c(C(F)(F)F)nn2c1N(Cc1ccc(N(C)C)cc1)CC2)c1ccc(C(=O)O)cc1` [Compound 88, (S)-4-(1-(1-(4-(dimethylamino)benzyl)-6-(trifluoromethyl)-2,3-dihydro-1H-imidazo[1,2-b]pyrazole-7-carboxamido)ethyl)benzoic Acid] yielded an IC50 of 18.5 nM. With `C[C@H](NC(=O)c1c(C(F)(F)F)nn2c1N(Cc1cccc(N(C)C)c1)CC2)c1ccc(C(=O)O)cc1` [Compound 89, (S)-4-(1-(1-(3-(dimethylamino)benzyl)-6-(trifluoromethyl)-2,3-dihydro-1H-imidazo[1,2-b]pyrazole-7-carboxamido)ethyl)benzoic Acid] the IC50 was 1.57 nM. In the case of `C[C@H](NC(=O)c1c(C(F)(F)F)nn2c1N(Cc1cc(N(C)C)cc(C(F)(F)F)c1)CC2)c1ccc(C(=O)O)cc1` [Compound 90, (S)-4-(1-(1-(3-(dimethylamino)-5-(trifluoromethyl)benzyl)-6-(trifluoromethyl)-2,3-dihydro-1H-imidazo[1,2-b]pyrazole-7-carboxamido)ethyl)benzoic Acid], the IC50 is reported as 6.37 nM. `C[C@H](NC(=O)c1c(CF)nn2c1N(Cc1cccc(C(F)(F)F)c1)CC2)c1ccc(C(=O)O)cc1` [Compound 91, (S)-4-(1-(6-(Fluoromethyl)-1-(3-(trifluoromethyl)benzyl)-2,3-dihydro-1H-imidazo[1,2-b]pyrazole-7-carboxamido)ethyl)benzoic Acid] was tested, and the IC50 was 0.636 nM. For `C=Cc1nn2c(c1C(=O)N[C@@H](C)c1ccc(C(=O)O)cc1)N(Cc1cccc(C(F)(F)F)c1)CC2` [Compound 92, (S)-4-(1-(1-(3-(Trifluoromethyl)benzyl)-6-vinyl-2,3-dihydro-1H-imidazo[1,2-b]pyrazole-7-carboxamido)ethyl)benzoic Acid], the IC50 was 5.43 nM. Compound `C[C@H](NC(=O)c1c(CO)nn2c1N(Cc1cccc(C(F)(F)F)c1)CC2)c1ccc(C(=O)O)cc1` [Compound 93, (S)-4-(1-(6-(Hydroxymethyl)-1-(3-(trifluoromethyl)benzyl)-2,3-dihydro-1H-imidazo[1,2-b]pyrazole-7-carboxamido)ethyl)benzoic Acid] has an IC50 of 6.59 nM. `C[C@H](NC(=O)c1c(C(F)F)nn2c1N(Cc1cccc(C(F)(F)F)c1)CC2)c1ccc(C(=O)O)cc1` [Compound 94, (S)-4-(1-(6-(Difluoromethyl)-1-(3-(trifluoromethyl)benzyl)-2,3-dihydro-1H-imidazo[1,2-b]pyrazole-7-carboxamido)ethyl)benzoic Acid] was tested, and the IC50 was 0.343 nM. Compound `C[C@H](NC(=O)c1c(C(F)(F)F)nn2c1N(Cc1cccc(C(F)(F)CO)c1)CC2)c1ccc(C(=O)O)cc1` [Compound 95, (S)-4-(1-(1-(3-(1,1-Difluoro-2-hydroxyethyl)benzyl)-6-(trifluoromethyl)-2,3-dihydro-1H-imidazo[1,2-b]pyrazole-7-carboxamido)ethyl)benzoic Acid] has an IC50 of 4.26 nM. In the case of `C[C@H](NC(=O)c1c(C(F)(F)F)nn2c1N(Cc1cccc(CCCF)c1)CC2)c1ccc(C(=O)O)cc1` [Compound 96, (S)-4-(1-(1-(3-(3-Fluoropropyl)benzyl)-6-(trifluoromethyl)-2,3-dihydro-1H-imidazo[1,2-b]pyrazole-7-carboxamido)ethyl)benzoic Acid], the IC50 is reported as 0.866 nM.
